The text below walks through data of article PMC8025945 (Journal of medicinal chemistry, 2017).

Read-outs that look alike come from different tables or passages of the source.

As a reminder, the GI50 is the concentration that inhibits growth by half.

Series [1] has as its system zebrafish embryos.
The test system of series [2] is SF-539. The experiment in a line: NCI-60 human tumor cell line screen, CNS SF-539. Particulars: read-out: cytotoxicity (GI50) CNS SF-539; 50% growth inhibition.
The test system of series [3] is HOP-62. Put plainly: NCI-60 human tumor cell line screen, lung HOP-62. Particulars: read-out: cytotoxicity (GI50) lung HOP-62; 50% growth inhibition.
The subject of series [4] is SN12C. Put plainly: NCI-60 human tumor cell line screen, renal SN12C. Particulars: read-out: cytotoxicity (GI50) renal SN12C; 50% growth inhibition.
In series [5] the test system is MCF-7. Put plainly: NCI-60 human tumor cell line screen, breast MCF-7. The following applies: read-out: cytotoxicity (GI50) breast MCF-7; 50% growth inhibition.
In series [6] the test system is HCT-116. Put plainly: NCI-60 human tumor cell line screen, colon HCT-116. The following applies: read-out: cytotoxicity (GI50) colon HCT-116; 50% growth inhibition.
Series [7] has as its system OVCAR-3. Put plainly: NCI-60 human tumor cell line screen, ovarian OVCAR-3. Particulars: read-out: cytotoxicity (GI50) ovarian OVCAR-3; 50% growth inhibition.
In series [8] the test system is DU-145. Put plainly: NCI-60 human tumor cell line screen, prostate DU-145. Particulars: read-out: cytotoxicity (GI50) prostate DU-145; 50% growth inhibition.
In series [9] the test system is UACC-62. The experiment in a line: NCI-60 human tumor cell line screen, melanoma UACC-62. Particulars: read-out: cytotoxicity (GI50) melanoma UACC-62; 50% growth inhibition.
Series [10] relates to NCI-60 human tumor cell lines. The experiment in a line: NCI-60 mean graph midpoint. The following applies: read-out: MGM GI50.
Series [11] concerns the target T1, recombinant Top1 (Homo sapiens, UniProt P11387).
T1 sequence (P11387 1-765): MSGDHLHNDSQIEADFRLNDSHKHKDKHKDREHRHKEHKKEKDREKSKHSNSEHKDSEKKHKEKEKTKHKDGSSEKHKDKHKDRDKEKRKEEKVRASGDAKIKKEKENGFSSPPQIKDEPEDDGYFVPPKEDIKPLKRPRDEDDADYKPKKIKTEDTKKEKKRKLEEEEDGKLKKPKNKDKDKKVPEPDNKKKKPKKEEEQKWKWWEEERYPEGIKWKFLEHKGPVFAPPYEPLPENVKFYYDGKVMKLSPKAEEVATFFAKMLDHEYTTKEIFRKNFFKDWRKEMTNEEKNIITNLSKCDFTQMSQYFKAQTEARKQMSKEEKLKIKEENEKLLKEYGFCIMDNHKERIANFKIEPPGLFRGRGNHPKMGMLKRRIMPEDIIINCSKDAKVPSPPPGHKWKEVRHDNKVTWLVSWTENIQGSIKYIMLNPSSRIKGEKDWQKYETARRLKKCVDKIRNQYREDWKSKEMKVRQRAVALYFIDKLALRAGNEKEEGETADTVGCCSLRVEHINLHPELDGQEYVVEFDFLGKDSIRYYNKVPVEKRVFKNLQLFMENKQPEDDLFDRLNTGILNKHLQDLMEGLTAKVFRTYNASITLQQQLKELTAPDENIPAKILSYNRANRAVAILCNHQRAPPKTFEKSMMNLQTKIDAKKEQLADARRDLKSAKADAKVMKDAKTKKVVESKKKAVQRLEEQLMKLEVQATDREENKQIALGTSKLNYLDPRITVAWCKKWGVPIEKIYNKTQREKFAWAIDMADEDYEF
The experiment in a line: Top1-mediated DNA cleavage assay. The format is biochemical. The following applies: semiquantitative scale relative to 1 μM MJ-III-65 (6) and 1 μM camptothecin (1).

Series [12] concerns HOP-62. Particulars: human, HOP-62 lung tumor cells.
Series [13] relates to HCT-116. The following applies: human, HCT-116 colon tumor cells.
For series [14], the system named is OVCAR-3. The following applies: human, OVCAR-3 ovarian tumor cells.
Series [15] concerns DU-145. The following applies: human, DU-145 prostate tumor cells.
Series [16] relates to NCI-60 human tumor cell lines. The following applies: NCI-60 human tumor cell lines (all cell lines tested).

Regarding `COc1cnc2c(c1)C(=O)c1c-2n(CCCn2ccnc2)c(=O)c2cc([N+](=O)[O-])ccc12` [compound 9], the zebrafish survival percentage was determined as 0 ± 0 % in [1] (0.1 μM in medium, 48 h after fertilization); 0 ± 0 % in series [1] (0.1 μM in medium, 72 h after fertilization); 0 ± 0 % in series [1] (0.1 μM in medium, 96 h after fertilization); 0 ± 0 % in series [1] (0.1 μM in medium, 120 h after fertilization); 0 ± 0 % in series [1] (1 μM in medium, 24 h after fertilization); 0 ± 0 % in [1] (1 μM in medium, 48 h after fertilization). Also, the zebrafish survival percentage in [1] (1 μM in medium, 72 h after fertilization) was 0 ± 0 %; in series [1] (1 μM in medium, 96 h after fertilization), 0 ± 0 %; in [1] (1 μM in medium, 120 h after fertilization) it was 0 ± 0 %; in series [1] (10 μM in medium, 24 h after fertilization), 0 ± 0 %; in [1] (10 μM in medium, 48 h after fertilization), 0 ± 0 %; in series [1] (10 μM in medium, 72 h after fertilization), 0 ± 0 %. The zebrafish survival percentage amounted to 0 ± 0 % in series [1] (10 μM in medium, 96 h after fertilization) and 0 ± 0 % in series [1] (10 μM in medium, 120 h after fertilization). The “lethality in zebrafish (comparison between compounds)” value in series [1] (statistical comparison of 9, 16b and 17b) is “significantly more lethal”. The GI50 in series [2] was below 10 nM; in series [3], below 10 nM; in series [4] it was below 10 nM; in [5], below 10 nM; in series [6], below 10 nM; in series [7] it was 25 nM. In addition, the 50% growth inhibitory concentration (GI50) in series [8] was below 10 nM; in series [9], below 10 nM; in series [10] it was 21 nM.
With `O=C1c2ccccc2-c2c1c1ccc(Cl)cc1c(=O)n2CCCn1ccnc1` [compound 8], the “enzyme inhibitory activity Top1 (compound-induced DNA cleavage score)” value in [11] is given as “+++”. Further, the GI50 was found to be 186 nM in series [12]; 107 nM in [13]; 407 nM in series [14]; 309 nM in series [15]; 229 nM in series [16].
